# Assay results: patent publication US6410218B1, “Plasma-like solution” (BioTime, Inc., priority 1993, dated 2002)
# Key:
# [1] = Buffering capacity in a cell-free system (addition of 1.25 M HCl); type: physicochemical
# Protocol: By contrast, the pH of HLB solution (initial pH 7.7) drops below 7.2 with the addition of about 0.01 ml of a 1.25 M HCl solution.
# When the solution of the present invention is used as a blood substitute at hypothermic temperatures, medical grade sterile NaHCO3 is added to the heat sterilized solution (HL solution). The solution containing NaHCO3 is called HLB solution. Under in vivo conditions with oxygenation, HLB solution is shown to maintain pH above 7.3 in temperatures ranging from 1.6-36.1° C. (Tables 2 and 3).
# [2] = cited from earlier work
initial pH ([1]; cell-free solution before HCl addition),"volume of 1.25 M HCl solution added with pH maintained above 7.2 ([1]; cell-free, initial pH about 7.7)",Molecule,"share of dose eliminated in the urine ([2]; 500 ml intravenous dose of 6% solution, after 24 hours)",share of dose remaining circulating ([2]; after 1 week)
about 7.7,up to 0.12 mls,"NCC(CO)(CO)CO [25 mM TRIS, Tris[Hydroxymethyl]methyl aminomethane]",,
,,hydroxyethyl starch,approximately 33%,Approximately 10%
